Like-named read-outs stand apart in the source and are kept apart here. Blank lines part the entries; values can stand above or below the compound they belong to.
Assays:
RKO cells = experiment: Combination of Asperphenin B with other anticancer drugs, SRB cell viability; assay type: cell-based, human; conditions: 48 hours; for Effects of cell growth inhibition in combination with Asperphenin B compared to the anticancer drug alone: FIGS. 7A to 7C; for Effect of administration in combination: <1 synergistic, =1 additive, >1 antagonistic
Protocol: RKO cells diluted in a medium containing 10% (v/v) FBS were inoculated in each well of a 96-well microplate so that each plate included 7×10^3 cells, and then, the cells were cultured for about 24 hours at a temperature of 37° C. under the condition of 5% CO2. In the medium containing 10% (v/v) FBS, irinotecan (Sigma Aldrich), 5-fluorouracil (Sigma Aldrich), or gemsitabin (Sigma Aldrich) was mixed with […] at a ratio of 1:1, and then, the mixture was added to the cultured cells. Then, the cells were cultured for 48 hours at a temperature of 37° C. under the conditions of 5% CO2. […] In addition, the effects of the administration in combination were measured according to Equation 1, and results thereof are shown in Table 8. Effects of administration in combination=D1/(Dx)1+D2/(Dx)2 [Equation 1] D1: Concentration of […] with expected effect in administration in combination D2: Concentration of other anticancer drugs with expected effect in administration in combination (Dx)1: Concentration of […] with expected effect in administration of […] only (Dx)2: Concentration of other anticancer drugs with expected effect in administration of other anticancer drugs only […]

[1] = system: stomach cancer cell line SNU638; experiment: SRB cell viability assay, stomach cancer cell line SNU638; assay type: cell-based; conditions: SNU638, 72 hours, read-out: Cell growth inhibition concentration (IC50)
Protocol: (§1) Regarding a lung cancer cell line A549 (Korean Cell line Bank), a colon cancer cell line HCT116 (ATCC), a stomach cancer cell line SNU638 (Korean Cell Line Bank), a liver cancer cell line SK-HEP-1 (Korean Cell line Bank), and a breast cancer cell line MDA-MB-231 (Korean Cell line Bank), a sulforhodamine B (SRB) assay which is a method of measuring cell viability was used for measuring apoptosis effects of Asperphenin.
(§2) In detail, 190 μl of a cell suspension at a concentration of 3.5×10^4 cells/ml was inoculated in each well of a 96-well microplate. 0.8 μM, 4 μM, 20 μM, or 100 μM of Asperphenin was added to the cell culture medium, and cultured at a temperature of 37° C. for 72 hours under the condition of 5% CO2. After incubation, 50 μl of 50% (v/v) trichloroacetic acid solution (Sigma Aldrich) was added to each well, and then, incubated at a temperature of 4° C. for 30 minutes, to thereby fix the cells thereto. The fixed cells were washed with water five times, and then, dried in the air.
(§3) Next, 80 μl of a 0.4% (w/v) SRB aqueous solution (Sigma Aldrich) containing 1% (v/v) acetic acid (DUKSAN) was added to each well, incubated at room temperature for 1 hour to stain cells therein, and the stained cells washed with water and dried. The cells were dissolved by adding 200 μl of 10 mM Tris (pH 10.0) (Sigma Aldrich) to each well, and then, the number of living cells was calculated by measuring the absorbance thereof at 515 nm. The concentration of the compound inhibiting cell growth to 50% based on the number of the living cells, i.e., 50% inhibition concentration (IC50) was calculated, and the results are shown in Table 3. Here, as a positive control, etoposide (Sigma Aldrich) was used.

[2] = system: colon cancer cell line HCT116; experiment: SRB cell viability assay, colon cancer cell line HCT116; assay type: cell-based
Protocol: as §1, §2, §3
From the colon cancer cell lines HCT116 (ATCC), HCT15 (Korean Cell Line Bank), LS174T (Korean Cell Line Bank), RKO(ATCC), and SW480(ATCC), cell growth inhibition concentrations (IC50, μM) were calculated as described in Example 2-1, and the results are shown in Table 4. Here, as a positive control, paclitaxel (Sigma Aldrich) was used.

[3] = system: breast cancer cell line MDA-MB-231; experiment: SRB cell viability assay, breast cancer cell line MDA-MB-231; assay type: cell-based; conditions: MDA-MB-231, 72 hours, read-out: Cell growth inhibition concentration (IC50)
Protocol: as §1, §2, §3

[4] = system: liver cancer cell line SK-HEP-1; experiment: SRB cell viability assay, liver cancer cell line SK-HEP-1; assay type: cell-based; conditions: SK-HEP-1, 72 hours, read-out: Cell growth inhibition concentration (IC50)
Protocol: as §1, §2, §3

[5] = system: lung cancer cell line A549; experiment: SRB cell viability assay, lung cancer cell line A549; assay type: cell-based; conditions: A549, 72 hours, read-out: Cell growth inhibition concentration (IC50)
Protocol: as §1, §2, §3

[6] = Physicochemical characterization
[7] = system: colon cancer cell line SW480; experiment: SRB cell viability assay, colon cancer cell line SW480; assay type: cell-based; conditions: Homo sapiens, read-out: Growth inhibition value of cancer cell (IC50)
Protocol: as §2
(§4) Next, 80 μl of a 0.4% (w/v) SRB aqueous solution (Sigma Aldrich) containing 1% (v/v) acetic acid (DUKSAN) was added to each well, incubated at room temperature for 1 hour to stain cells therein, and the stained cells washed with water and dried. The cells were dissolved by adding 200 μl of 10 mM Tris (pH 10.0) (Sigma Aldrich) to each well, and then, the number of living cells was calculated by measuring the absorbance thereof at 515 nm. […]
(§5) From the colon cancer cell lines HCT116 (ATCC), HCT15 (Korean Cell Line Bank), LS174T (Korean Cell Line Bank), RKO(ATCC), and SW480(ATCC), cell growth inhibition concentrations (IC50, μM) were calculated as described in Example 2-1, and the results are shown in Table 4. […]

[8] = system: colon cancer cell line LS174T; experiment: SRB cell viability assay, colon cancer cell line LS174T; assay type: cell-based; conditions: Homo sapiens, read-out: Growth inhibition value of cancer cell (IC50)
Protocol: as §2, §4, §5

[9] = system: colon cancer cell line HCT15; experiment: SRB cell viability assay, colon cancer cell line HCT15; assay type: cell-based; conditions: Homo sapiens, HCT-15, read-out: Growth inhibition value of cancer cell (IC50)
Protocol: as §2, §4, §5

[10] = system: colon cancer cell line RKO; experiment: SRB cell viability assay, colon cancer cell line RKO; assay type: cell-based; conditions: Homo sapiens, read-out: Growth inhibition value of cancer cell (IC50)
Protocol: as §2, §4, §5

Structure (SMILES): CCc1c2c(nc3ccc(OC(=O)N4CCC(N5CCCCC5)CC4)cc13)-c1cc3c(c(=O)n1C2)COC(=O)[C@]3(O)CC [Irinotecan, irinotecan]
Effects of cell growth inhibition in combination with Asperphenin B compared to the anticancer drug alone (RKO cells): increased
Effect of administration in combination (RKO cells; irinotecan 1.25 μM + Asperphenin B 2.5 μM): 0.792
Effect of administration in combination (RKO cells; irinotecan 2.5 μM + Asperphenin B 2.5 μM): 0.751
Effect of administration in combination (RKO cells; irinotecan 5 μM + Asperphenin B 2.5 μM): 0.691
Effect of administration in combination (RKO cells; irinotecan 10 μM + Asperphenin B 2.5 μM): 0.650

Structure (SMILES): Nc1ccn([C@@H]2O[C@H](CO)[C@@H](O)C2(F)F)c(=O)n1 [Gemsitabin, gemsitabin]
Effects of cell growth inhibition in combination with Asperphenin B compared to the anticancer drug alone (RKO cells): increased
Effect of administration in combination (RKO cells; gemsitabin 0.32 μM + Asperphenin B 8 μM): 0.907
Effect of administration in combination (RKO cells; gemsitabin 1.6 μM + Asperphenin B 8 μM): 0.882
Effect of administration in combination (RKO cells; gemsitabin 8 μM + Asperphenin B 8 μM): 0.801
Effect of administration in combination (RKO cells; gemsitabin 40 μM + Asperphenin B 8 μM): 0.714

Structure (SMILES): CCCCCCCCC[C@@H](O)CC(=O)N[C@@H](CC(N)=O)C(=O)N[C@@H](CCC(N)=O)C(=O)N[C@@H](CC(=O)c1cc(C)cc(O)c1C(=O)c1c(O)cccc1O)CC(C)C [Asperphenin A]
IC50 [1]: 5800 nM
IC50 ([2]; HCT116, 72 hours, Table 3, read-out: Cell growth inhibition concentration (IC50)): 1700 nM
IC50 [3]: 3100 nM
IC50 [4]: 2300 nM
IC50 [5]: 14600 nM
Solubility in organic solvent ([6]; methanol and acetone): well dissolved in a moderate organic solvent, such as methanol and acetone
Stability ([6]; room temperature): stable at room temperature

IC50 ([1]; Homo sapiens, SNU-638): 800 nM
IC50 ([2]; Homo sapiens, HCT-116, HCT116, 72 hours, Table 3, read-out: Cell growth inhibition concentration (IC50)): 1900 nM
IC50 ([3]; Homo sapiens): 10600 nM
IC50 ([4]; Homo sapiens, SK-HEP1): 600 nM
IC50 ([5]; Homo sapiens): 700 nM
Structure (SMILES): COc1cc([C@@H]2c3cc4c(cc3[C@@H](O[C@@H]3O[C@@H]5CO[C@@H](C)O[C@H]5[C@H](O)[C@H]3O)[C@H]3COC(=O)[C@H]23)OCO4)cc(OC)c1O [Etoposide, etoposide, reference compound]

Structure (SMILES): O=c1[nH]cc(F)c(=O)[nH]1 [5-fluorouracil]
Effect of administration in combination (RKO cells; 5-fluorouracil 0.08 μM + Asperphenin B 8 μM): 0.863
Effect of administration in combination (RKO cells; 5-fluorouracil 0.4 μM + Asperphenin B 8 μM): 0.852
Effect of administration in combination (RKO cells; 5-fluorouracil 2 μM + Asperphenin B 8 μM): 0.786
Effect of administration in combination (RKO cells; 5-fluorouracil 10 μM + Asperphenin B 8 μM): 0.765
Effects of cell growth inhibition in combination with Asperphenin B compared to the anticancer drug alone (RKO cells): increased

IC50 ([2]; Homo sapiens, HCT-116, HCT116, Table 4, read-out: Growth inhibition value of cancer cell (IC50)): 0.42 nM
IC50 [7]: > 100 nM
IC50 [8]: 0.46 nM
IC50 [9]: > 100 nM
IC50 [10]: 0.21 nM
Structure (SMILES): CC(=O)O[C@H]1C(=O)[C@@]2(C)[C@H]([C@H](OC(=O)c3ccccc3)[C@]3(O)C[C@H](OC(=O)[C@H](O)[C@@H](NC(=O)c4ccccc4)c4ccccc4)C(C)=C1C3(C)C)[C@]1(OC(C)=O)CO[C@@H]1C[C@@H]2O [Paclitaxel, paclitaxel, reference compound]

Source: patent US10759831B2, “Peptide compound, production method therefor, and use thereof” (iNtRON Biotechnology, Inc., priority 2014, dated 2020)
